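How tested: cells in 96-well plates exposed to compound for 48 hours at five concentrations. GI50 = concentration required for 50% inhibition of growth. Definition used: TGI = concentration required for complete inhibition of growth.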
What was measured:
Test in all cases: DTP human tumour cell line panel, 48 h
MDA-MB-231 breast = system: MDA-MB-231 breast
BT-549 breast = system: BT-549 breast
SF-295 CNS = system: SF-295 CNS
HOP-62 NSCLC = system: HOP-62 NSCLC
NCI/ADR-RES ovarian = system: NCI/ADR-RES ovarian
UACC-62 melanoma = system: UACC-62 melanoma
K-562 leukemia = system: K-562 leukemia
OVCAR-8 ovarian = system: OVCAR-8 ovarian
PC-3 prostate = system: PC-3 prostate
T-47D breast = system: T-47D breast
SN12C renal = system: SN12C renal
A549 NSCLC = system: A549 NSCLC
MDA-MB-435 = system: MDA-MB-435
CCRF-CEM leukemia = system: CCRF-CEM leukemia
SNB-75 CNS = system: SNB-75 CNS
A498 renal = system: A498 renal
UO-31 renal = system: UO-31 renal
SK-MEL-28 melanoma = system: SK-MEL-28 melanoma
SNB-19 CNS = system: SNB-19 CNS
HCT-116 colon = system: HCT-116 colon
TK-10 renal = system: TK-10 renal
MOLT-4 leukemia = system: MOLT-4 leukemia
SK-MEL-5 melanoma = system: SK-MEL-5 melanoma
RXF 393 renal = system: RXF 393 renal
KM12 colon = system: KM12 colon
SF-268 CNS = system: SF-268 CNS
U251 CNS = system: U251 CNS
ACHN renal = system: ACHN renal
SF-539 CNS = system: SF-539 CNS
DU-145 prostate = system: DU-145 prostate
MALME-3M melanoma = system: MALME-3M melanoma
COLO 205 colon = system: COLO 205 colon
LOX IMVI melanoma = system: LOX IMVI melanoma
OVCAR-5 ovarian = system: OVCAR-5 ovarian
SR leukemia = system: SR leukemia
SW-620 colon = system: SW-620 colon
786-0 renal = system: 786-0 renal
NCI-H460 lung = system: NCI-H460 lung
HS 578T breast = system: HS 578T breast
NCI-H522 lung = system: NCI-H522 lung
EKVX NSCLC = system: EKVX NSCLC
IGROV1 ovarian = system: IGROV1 ovarian
HT29 colon = system: HT29 colon
OVCAR-3 ovarian = system: OVCAR-3 ovarian
SK-MEL-2 melanoma = system: SK-MEL-2 melanoma
HOP-92 NSCLC = system: HOP-92 NSCLC
CAKI-1 renal = system: CAKI-1 renal
HCT-15 colon = system: HCT-15 colon
OVCAR-4 ovarian = system: OVCAR-4 ovarian
HCC-2998 colon = system: HCC-2998 colon
MCF7 breast = system: MCF7 breast
M14 melanoma = system: M14 melanoma
RPMI-8226 leukemia = system: RPMI-8226 leukemia
HL-60(TB) leukemia = system: HL-60(TB) leukemia
NCI-H23 lung = system: NCI-H23 lung
UACC-257 melanoma = system: UACC-257 melanoma

CO[C@H]1/C=C/[C@@](C)(O)/C=C/C(=O)O[C@H](C)[C@@H](C)CC/C=C/1C
GI50 (MDA-MB-231 breast): 14.5 µM | TGI (MDA-MB-231 breast): 45.1 µM | GI50 (BT-549 breast): 19.8 µM | TGI (BT-549 breast): 63.6 µM | GI50 (SF-295 CNS): 16.5 µM | TGI (SF-295 CNS): 39.8 µM | GI50 (HOP-62 NSCLC): 16.3 µM | TGI (HOP-62 NSCLC): 59.2 µM | GI50 (NCI/ADR-RES ovarian): 15 µM | TGI (NCI/ADR-RES ovarian): 40.5 µM | GI50 (UACC-62 melanoma): 13.8 µM | TGI (UACC-62 melanoma): 30 µM | GI50 (K-562 leukemia): 15.2 µM | TGI (K-562 leukemia): > 100 µM | GI50 (OVCAR-8 ovarian): 26.9 µM | TGI (OVCAR-8 ovarian): > 100 µM | GI50 (PC-3 prostate): 18.2 µM | TGI (PC-3 prostate): 53.7 µM | GI50 (T-47D breast): 14.1 µM | TGI (T-47D breast): > 100 µM | GI50 (SN12C renal): 17.6 µM | TGI (SN12C renal): 59.2 µM | GI50 (A549 NSCLC): 23 µM | TGI (A549 NSCLC): > 100 µM | GI50 (MDA-MB-435): 23.1 µM | TGI (MDA-MB-435): 83.1 µM | GI50 (CCRF-CEM leukemia): 10.1 µM | TGI (CCRF-CEM leukemia): > 100 µM | GI50 (SNB-75 CNS): 17.5 µM | TGI (SNB-75 CNS): 40.4 µM | GI50 (A498 renal): 12 µM | TGI (A498 renal): 32 µM | GI50 (UO-31 renal): 8.38 µM | TGI (UO-31 renal): 21.1 µM | GI50 (SK-MEL-28 melanoma): 16.9 µM | TGI (SK-MEL-28 melanoma): 42.6 µM | GI50 (SNB-19 CNS): 21.9 µM | TGI (SNB-19 CNS): 81.8 µM | GI50 (HCT-116 colon): 12.9 µM | TGI (HCT-116 colon): 26.2 µM | GI50 (TK-10 renal): 19.7 µM | TGI (TK-10 renal): 88.4 µM | GI50 (MOLT-4 leukemia): 21.2 µM | TGI (MOLT-4 leukemia): 98.6 µM | GI50 (SK-MEL-5 melanoma): 14 µM | TGI (SK-MEL-5 melanoma): 28.4 µM | GI50 (RXF 393 renal): 11 µM | TGI (RXF 393 renal): 24.5 µM | GI50 (KM12 colon): 15.8 µM | TGI (KM12 colon): 41.2 µM | GI50 (SF-268 CNS): 19.7 µM | TGI (SF-268 CNS): > 100 µM | GI50 (U251 CNS): 14.2 µM | TGI (U251 CNS): 40.6 µM | GI50 (ACHN renal): 18.7 µM | TGI (ACHN renal): 55.9 µM | GI50 (SF-539 CNS): 15.2 µM | TGI (SF-539 CNS): 31.3 µM | GI50 (DU-145 prostate): 22.4 µM | TGI (DU-145 prostate): 71.8 µM | GI50 (MALME-3M melanoma): 13.1 µM | TGI (MALME-3M melanoma): 37.3 µM | GI50 (COLO 205 colon): 20.6 µM | TGI (COLO 205 colon): 47.8 µM | GI50 (LOX IMVI melanoma): 11.3 µM | TGI (LOX IMVI melanoma): 26 µM | GI50 (OVCAR-5 ovarian): 17.7 µM | TGI (OVCAR-5 ovarian): 39.2 µM | GI50 (SR leukemia): 15 µM | TGI (SR leukemia): > 100 µM | GI50 (SW-620 colon): 15.1 µM | TGI (SW-620 colon): 35.7 µM | GI50 (786-0 renal): 16.8 µM | TGI (786-0 renal): 34.3 µM | GI50 (NCI-H460 lung): 17.4 µM | TGI (NCI-H460 lung): 48.6 µM | GI50 (HS 578T breast): 23.9 µM | TGI (HS 578T breast): > 100 µM | GI50 (NCI-H522 lung): 15.2 µM | TGI (NCI-H522 lung): 36.4 µM | GI50 (EKVX NSCLC): 15.7 µM | TGI (EKVX NSCLC): 76.8 µM | GI50 (IGROV1 ovarian): 17.2 µM | TGI (IGROV1 ovarian): 62.3 µM | GI50 (HT29 colon): 19.4 µM | TGI (HT29 colon): 48.7 µM | GI50 (OVCAR-3 ovarian): 11.3 µM | TGI (OVCAR-3 ovarian): 29.4 µM | GI50 (SK-MEL-2 melanoma): 23.6 µM | TGI (SK-MEL-2 melanoma): 63.5 µM | GI50 (HOP-92 NSCLC): 7.62 µM | TGI (HOP-92 NSCLC): 26.1 µM | GI50 (CAKI-1 renal): 21.1 µM | TGI (CAKI-1 renal): 69.7 µM | GI50 (HCT-15 colon): 7.35 µM | TGI (HCT-15 colon): 22.5 µM | GI50 (OVCAR-4 ovarian): 14.9 µM | TGI (OVCAR-4 ovarian): 76.3 µM | GI50 (HCC-2998 colon): 15.6 µM | TGI (HCC-2998 colon): 30.7 µM | GI50 (MCF7 breast): 16.5 µM | TGI (MCF7 breast): 56 µM | GI50 (M14 melanoma): 15.7 µM | TGI (M14 melanoma): 43.3 µM | GI50 (RPMI-8226 leukemia): 15.5 µM | TGI (RPMI-8226 leukemia): 97.3 µM | GI50 (HL-60(TB) leukemia): 22.7 µM | TGI (HL-60(TB) leukemia): 54.5 µM | GI50 (NCI-H23 lung): 14.8 µM | TGI (NCI-H23 lung): 32.4 µM | GI50 (UACC-257 melanoma): 26.7 µM | TGI (UACC-257 melanoma): 87.3 µM
